Assay: Metabolic stability in human liver microsomes
Assay type: in vitro ADME
Protocol: Metabolic Stability. All compounds were tested at the final concentration of 1 µM in a 50 mM potassium phosphate buffer (pH 7.4) containing 1% DMSO as vehicle. For microsomes assay, the incubation mixtures contained 0.15 mg of Human liver microsomes (Sigma-Aldrich, St. Louis, MO, United States), 5 mM MgCl2, 1 mM NADPH, 5 mM glucose 6-phosphate, 0.4 U mL^−1 glucose 6-phosphate dehydrogenase. For S9 fraction analysis, the buffer contained 0.15 mg of S9 proteins (Sigma-Aldrich, St. Louis, MO, United States), 0.3 mM NADPH, 5.6 mM glucose-6-phosphate, 0.6 units/mL glucose-6-phosphate dehydrogenase, 5.8 mM UDP-glucuronic acid, 0.05 mM acetyl-CoA, 0.5 mM dithiothreitol, 0.5 mM 3′-phosphoadenosine 5′-phosphosulfate, 1 mM glutathione, 0.2 mM acetyl carnitine, 4 units/mL carnitine acetyl transferase, 0.5 mM glycine, and 0.5 mM taurine.
Samples were kept at 37°C and aliquots were removed at 0, 5, 15, 30, 45, 60, 90, 120, 150 min after protein additions. The reaction was stopped by adding 200 µL of ice-cold acetonitrile to withdrawn aliquots. After 2 h, samples were centrifuged for 10 min at 10,000 rpm, and supernatants were subjected to LC-MS/MS analysis.
The slope of the linear regression of the curve obtained reporting the natural logarithm of compound area versus incubation time (−k) was used in the conversion to in vitro t1/2 values by t1/2 = […].
In vitro intrinsic clearance (Clint expressed as µL/min/mg) was calculated according to the following formula: Clint = Vx 0.693/t1/2 were V = volume of reaction (µL)/protein in the incubation (mg). Testosterone was used as a positive control for microsome and phase I enzymes, and 7-hydroxycoumarin was used as positive control for phase II enzymes.

Q: With `O=C(O)c1cccc(-c2ccc(OCc3ccc4ccccc4n3)cc2)c1` [Compound 2, 4'-(quinolin-2-ylmethoxy)-[1,1′-biphenyl]-3-carboxylic acid] as the compound, how does the “stability to Phase I enzymes contained in microsomal fraction” value read?
A: highly stable

Q: And the microsomal CLint at 1 µM (pH 7.4, human liver microsomes, 1 µM)?
A: 4 µL/min/mg

Q: And the half-life at 1 µM (pH 7.4, human liver microsomes, 1 µM, read-out: Microsomes t1/2)?
A: 9.63 h

— PMC9085577, “Discovery of a Potent and Orally Active Dual GPBAR1/CysLT1R Modulator for the Treatment of Metabolic Fatty Liver Disease” (Frontiers in Pharmacology, 2022)
